Tests used:
[1] = Oxidative-forced degradation of sugammadex sodium (Example VI); assay type: physicochemical
Protocol: To confirm that impurities observed in sugammadex sodium-containing solutions could be at least in part a result of oxidative degradation, sugammadex sodium as a solution in […] was subjected to an atmosphere of either 0.01% H2O2 for one hour or to an atmosphere of 0.002% H2O2 for five hours. S-oxide diastereomer-1 impurity, s-oxide diastereomer-2 impurity, impurity at ˜1.12 RRT, mono chloro impurity, unknown impurities, and mono hydroxyl impurity concentrations were measured using HPLC technique as described in Example VII after the first hour of 0.01% H2O2 exposure and after the first, fourth, and fifth hour of 0.002% H2O2 exposure.
(§1) For the following procedure, amber-colored glassware was used for all preparations. In addition, because sugammadex sodium is markedly hygroscopic when exposed to air at room temperature and when exposed to humidity, a relative humidity of less than 40% RH was maintained during weighing.
(§2) First, a buffer solution having a pH of 2.0 was prepared by weighing and transferring about 4.08 g of potassium dihydrogen phosphate (AR grade of equivalent) into 1000 mL water (HPLC Grade or Milli-Q) and mixing. The pH of the buffer solution was adjusted to 2.0±0.05 with concentrated ortho-phosphoric acid (HPLC grade or equivalent) and mixed well.
(§3) A mobile phase A was then prepared by transferring 950 mL of the buffer solution and 50 mL of methanol (HPLC grade or equivalent) into a bottle, mixing, and sonicating to degas. A mobile phase B was also prepared by transferring 300 mL of the buffer solution and 700 mL of acetonitrile (HPLC grade or equivalent) into a bottle, mixing, and sonicating to degas.
(§4) A standard solution (50 ppm) was also prepared by weighing and transferring 27.2 mg of sugammadex sodium standard into a 50 mL amber color volumetric flask. About 30 mL of 100% water (HPLC Grade or Milli-Q) was added, and the mixture was sonicated to dissolve. The solution was made up to the mark with 100% water (HPLC Grade or Milli-Q) and mixed well. Then, 5.0 mL of this solution was transferred to 50 mL amber color volumetric flasks, made up to the mark with 100% water (HPLC Grade or Milli-Q), and mixed well.
(§5) To prepare a sensitivity solution (5 ppm), 5.0 mL of the standard solution was transferred to a 50 mL amber volumetric flask, made-up to the mark with 100% water (HPLC Grade or Milli-Q), and mixed well.
(§6) A placebo solution was also prepared by weighing and transferring 1.0 g of placebo into a 20 mL amber color volumetric flask, diluting to 20 mL with 100% water (HPLC Grade or Milli-Q), and mixing well.
(§7) A sample solution (5000 ppm) was also prepared by weighing and transferring 1.0 g of the sample to be analyzed into a 20 mL amber color volumetric flask, diluting to 20 mL with 100% water (HPLC Grade or Milli-Q), and mixing well.
(§8) When performing the chromatographic procedure, for initial samples, two samples were prepared in duplicate. For stability samples, a single sample was prepared. In addition, any peak due to blank and/or placebo was disregarded, any peak below LOQ level was disregarded, and any peak corresponding to mono chloro impurity was disregarded.
(§9) The percent impurity was then calculated as follows:
(§10) [formula] where: A(Spl)=Peak response of impurity obtained from sample solution A(Std)=Average peak response of sugammadex from the standard solution Wt(Std)=Weight (mg) of sugammadex working standard. Wt(Spl)=Weight (g) of Sample LC=Label Claim (100 mg/ml sugammadex) D=Density of sample (mg/ml) P=Potency of the standard (Anhydrous basis+Solvent free) WC=Water content of sugammadex working standard. 2002.12=Molecular weight of sugammadex 2178.01=Molecular weight of sugammadex sodium
(§11) Total impurities were calculated by adding all known impurities (excluding mono hydroxy impurity) and all unknown impurities.

[2] = Thermal-forced degradation of sugammadex sodium (Example V); assay type: physicochemical; conditions: solution in WFI, 60° C.
Protocol: To confirm that the impurities observed in Example III were at least in part a result of thermal degradation, sugammadex sodium as a solution in WFI was subjected to an elevated temperature of 60° C. for ten days. S-oxide diastereomer-1 impurity, s-oxide diastereomer-2 impurity, impurity at ˜1.12 RRT, mono chloro impurity, unknown impurities, and mono hydroxyl impurity concentrations were measured using HPLC technique as described in Example VII after the first, third, fifth, and tenth day.
as §1, §2, §3, §4, §5, §6, §7, §8, §9, §10, §11

SMILES: O=C([O-])CCSC[C@H]1O[C@@H]2O[C@H]3[C@H](O)[C@@H](O)[C@@H](O[C@H]4[C@H](O)[C@@H](O)[C@@H](O[C@H]5[C@H](O)[C@@H](O)[C@@H](O[C@H]6[C@H](O)[C@@H](O)[C@@H](O[C@H]7[C@H](O)[C@@H](O)[C@@H](O[C@H]8[C@H](O)[C@@H](O)[C@@H](O[C@H]9[C@H](O)C(O)[C@@H](O[C@H]1[C@H](O)[C@H]2O)O[C@@H]9CSCCC(=O)[O-])O[C@@H]8CSCCC(=O)[O-])O[C@@H]7CSCCC(=O)[O-])O[C@@H]6CSCCC(=O)[O-])O[C@@H]5CSCCC(=O)[O-])O[C@@H]4CSCCC(=O)[O-])O[C@@H]3CSCCC(=O)[O-].[Na+].[Na+].[Na+].[Na+].[Na+].[Na+].[Na+].[Na+] (stereo partly drawn) [sugammadex sodium]
- (Excluding Monohydroxy impurity) ([1]; 0.002% H2O2, after fifth hour): 0.03 % impurity
- Highest Unknown impurity ([1]; 0.002% H2O2, after fifth hour): 0.07 % impurity
- Impurity at ~1.12 RRT ([1]; 0.002% H2O2, after fifth hour): 0.09 % impurity
- Mono chloro impurity ([1]; 0.002% H2O2, after fifth hour): 0.03 % impurity
- Other total impurities ([1]; 0.002% H2O2, after fifth hour): 0.82 % impurity
- S-oxide diastereomer-1 impurity ([1]; 0.002% H2O2, after fifth hour): 4.11 % impurity
- S-oxide diastereomer-2 impurity ([1]; 0.002% H2O2, after fifth hour): 5.02 % impurity
- Total impurities ([1]; 0.002% H2O2, after fifth hour): 10.14 % impurity
- (Excluding Monohydroxy impurity) ([1]; 0.002% H2O2, after first hour): 0.03 % impurity
- Highest Unknown impurity ([1]; 0.002% H2O2, after first hour): 0.07 % impurity
- Impurity at ~1.12 RRT ([1]; 0.002% H2O2, after first hour): 0.10 % impurity
- Mono chloro impurity ([1]; 0.002% H2O2, after first hour): 0.04 % impurity
- Other total impurities ([1]; 0.002% H2O2, after first hour): 0.31 % impurity
- S-oxide diastereomer-1 impurity ([1]; 0.002% H2O2, after first hour): 1.20 % impurity
- S-oxide diastereomer-2 impurity ([1]; 0.002% H2O2, after first hour): 1.47 % impurity
- Total impurities ([1]; 0.002% H2O2, after first hour): 3.20 % impurity
- (Excluding Monohydroxy impurity) ([1]; 0.002% H2O2, after fourth hour): 0.02 % impurity
- Highest Unknown impurity ([1]; 0.002% H2O2, after fourth hour): 0.07 % impurity
- Impurity at ~1.12 RRT ([1]; 0.002% H2O2, after fourth hour): 0.09 % impurity
- Mono chloro impurity ([1]; 0.002% H2O2, after fourth hour): 0.03 % impurity
- Other total impurities ([1]; 0.002% H2O2, after fourth hour): 0.65 % impurity
- S-oxide diastereomer-1 impurity ([1]; 0.002% H2O2, after fourth hour): 3.42 % impurity
- S-oxide diastereomer-2 impurity ([1]; 0.002% H2O2, after fourth hour): 4.18 % impurity
- Total impurities ([1]; 0.002% H2O2, after fourth hour): 8.45 % impurity
- (Excluding Monohydroxy impurity) ([1]; 0.01% H2O2, after first hour): 0.02 % impurity
- Highest Unknown impurity ([1]; 0.01% H2O2, after first hour): 3.07 % impurity
- Impurity at ~1.12 RRT ([1]; 0.01% H2O2, after first hour): 0.08 % impurity
- Mono chloro impurity ([1]; 0.01% H2O2, after first hour): 0.03 % impurity
- Other total impurities ([1]; 0.01% H2O2, after first hour): 3.66 % impurity
- S-oxide diastereomer-1 impurity ([1]; 0.01% H2O2, after first hour): 10.64 % impurity
- S-oxide diastereomer-2 impurity ([1]; 0.01% H2O2, after first hour): 12.89 % impurity
- Total impurities ([1]; 0.01% H2O2, after first hour): 30.36 % impurity
- Impurities generated via oxidation ([1]; 0.01% H2O2 one hour or 0.002% H2O2 five hours): at least s-oxide diastereomer-1 impurity, s-oxide diastereomer-2 impurity, and unknown impurities are generated via oxidation
- (Excluding Monohydroxy impurity) ([2]; after fifth day): 0.03 % impurity
- Highest Unknown impurity ([2]; after fifth day): 7.18 % impurity
- Impurity at ~1.12 RRT ([2]; after fifth day): 0.10 % impurity
- Mono chloro impurity ([2]; after fifth day): 0.03 % impurity
- Other total impurities ([2]; after fifth day): 0.80 % impurity
- S-oxide diastereomer-1 impurity ([2]; after fifth day): 0.16 % impurity
- S-oxide diastereomer-2 impurity ([2]; after fifth day): 0.21 % impurity
- Total impurities ([2]; after fifth day): 8.48 % impurity
- (Excluding Monohydroxy impurity) ([2]; after first day): 0.03 % impurity
- Highest Unknown impurity ([2]; after first day): 4.44 % impurity
- Impurity at ~1.12 RRT ([2]; after first day): 0.10 % impurity
- Mono chloro impurity ([2]; after first day): 0.04 % impurity
- Other total impurities ([2]; after first day): 0.71 % impurity
- S-oxide diastereomer-1 impurity ([2]; after first day): 0.12 % impurity
- S-oxide diastereomer-2 impurity ([2]; after first day): 0.17 % impurity
- Total impurities ([2]; after first day): 5.58 % impurity
- (Excluding Monohydroxy impurity) ([2]; after tenth day): 0.02 % impurity
- Highest Unknown impurity ([2]; after tenth day): 15.04 % impurity
- Impurity at ~1.12 RRT ([2]; after tenth day): 0.08 % impurity
- Mono chloro impurity ([2]; after tenth day): 0.03 % impurity
- Other total impurities ([2]; after tenth day): 0.85 % impurity
- S-oxide diastereomer-1 impurity ([2]; after tenth day): 0.48 % impurity
- S-oxide diastereomer-2 impurity ([2]; after tenth day): 0.42 % impurity
- Total impurities ([2]; after tenth day): 16.91 % impurity
- (Excluding Monohydroxy impurity) ([2]; after third day): 0.03 % impurity
- Highest Unknown impurity ([2]; after third day): 5.34 % impurity
- Impurity at ~1.12 RRT ([2]; after third day): 0.10 % impurity
- Mono chloro impurity ([2]; after third day): 0.03 % impurity
- Other total impurities ([2]; after third day): 0.79 % impurity
- S-oxide diastereomer-1 impurity ([2]; after third day): 0.14 % impurity
- S-oxide diastereomer-2 impurity ([2]; after third day): 0.20 % impurity
- Total impurities ([2]; after third day): 6.59 % impurity
- Impurities generated via thermal degradation ([2]; ten days): at least s-oxide diastereomer-1 impurity, s-oxide diastereomer-2 impurity, and unknown impurities are generated via thermal degradation
